# Source: paper PMC10541411 (Nature Communications, 2023)
# Columns and labels:
# [1] = target: T1, 53BP1^TT (tandem Tudor domain of 53BP1, residues 1481–1603) (Homo sapiens, UniProt Q12888); test: Isothermal titration calorimetry (ITC) of small molecules with 53BP1TT; format: binding; conditions: 25 °C, 50 mM Tris-HCl pH 7.5, 50 mM NaCl, one-site model; read-out: Kd (apparent, ITC)
# T1 construct: The tandem Tudor domain of 53BP1 (53BP1^TT, residues 1481–1603) was purified as previously described; made in house; host or cells: E. coli (only for the SAXS sample)
# Protocol: The ITC measurements were performed at 25 °C using a MicroCal iTC200 calorimeter. 53BP1^TT and the small molecules (UNC2991, UNC3351, UNC3474) were in 50 mM Tris-HCl, pH 7.5, 50 mM NaCl. In a typical run, 53BP1^TT was in the reaction cell at a concentration of 150 to 160 μM while the small molecule, in the titration syringe at a concentration of 0.8–2 mM, was delivered as 2 μL injections every 3 min. The titrations were paired with control experiments for heat of dilution. The titration of 53BP1^TT with UNC1118 was performed using a MicroCal VP-ITC calorimeter. ITC data were fitted to a one-site model using a Levenberg-Marquardt non-linear regression algorithm programmed in the Origin 7.0 software.
# Supplementary Figure 1 | Interaction of 53BP1TT with small molecules probed using isothermal titration calorimetry (ITC) and small-angle X-ray scattering (SAXS). a, ITC of the interaction of UNC2991, UNC3351 and UNC3474 with 53BP1TT. Raw titration data and integrated heat measurements are shown. Indicated apparent Kds with associated standard deviations were determined by nonlinear least-squares analysis.
# 1.33 and 2 mg/mL with an exposure time of 0.5 s, without and with 10-fold molar excess of UNC1118 or UNC3474. The error bars in the scattering curves were generated using PRIMUS in the data analysis software ATSAS 2.4.2 and represent mean ± standard deviation calculated from signal intensity scaling and merging for the three different 53BP1TT concentrations. The Guinier plots, dimensionless Kratky plots and pair distance distribution functions derived from the SAXS data are shown. Also shown are the crystal structures of 53BP1TT and 53BP1TT-UNC3474 overlaid to the corresponding SAXS-based ab initio molecular envelopes generated using GASBOR 2.3i. c, Interaction of UNC1118 with 53BP1TT characterized using ITC (left) and NMR spectroscopy (right).
# For the ITC, raw titration data and integrated heat measurements are shown. The indicated Kd with associated standard deviation was determined by nonlinear least-squares analysis.
# (1 picture or pasted object on this page, not shown here)
# [2] = target: T2, 53BP1^TT-PN (E1549P/D1550N) (Homo sapiens, UniProt Q12888, D1550N/E1549P); test: 1H-15N HSQC NMR titration of 15N-labeled 53BP1TT-PN; format: binding; conditions: up to fourfold molar excess
# T2 construct: The tandem Tudor domain of 53BP1 (53BP1^TT, residues 1481–1603) was purified as previously described; made in house
# Protocol: All NMR data were collected at 25 °C on a 700 MHz Bruker Avance III spectrometer equipped with a cryoprobe. Data were processed and analyzed with NMRPipe[54] and NMRViewJ[55],[56].
# To probe chemical shift perturbations, ^1H-^15N HSQC spectra were acquired on the following samples: 0.2 mM ^15N-labeled 53BP1^TT WT and 53BP1^TT-PN in 25 mM sodium phosphate, pH 7.0, 1.5 mM NaN3, 0.3 mM DSS, 90% H2O/10% D2O, free and incrementally titrated with various non-labeled inhibitors (UNC1078, UNC1118, UNC2170, UNC2991, UNC3474), as well as with H4KC20me2 and p53K382me2 peptides. Chemical shift perturbations (Δδ) were calculated using the Eq. (1):1 Δδ=(ΔN/5)^2+ΔH^2 where ΔN and ΔH are the corresponding differences in ^15N and ^1H chemical shifts between the bound and free forms of 53BP1.
# 53BP1^TT [3] = target: T3, 53BP1^TT (Homo sapiens, UniProt Q12888); test: Sedimentation velocity analytical ultracentrifugation (AUC); conditions: 53BP1TT 20 μM, UNC3474 10-200 μM
# T3 construct: The tandem Tudor domain of 53BP1 (53BP1^TT, residues 1481–1603) was purified as previously described; made in house; host or cells: E. coli (only for the SAXS sample)
# Protocol: The AUC experiments were performed at 20 °C in 20 mM sodium phosphate, pH 7.5, with 50 mM NaCl. 53BP1^TT was at a concentration of 20 μM. Measurements were recorded on an Optima analytical ultracentrifuge (Beckman Coulter) with an An-50 Ti analytical 8-place rotor using absorbance detection at 280 nm. Sample-filled AUC cells assembled with 12-mm charcoal-filled Epon centerpieces and quartz windows were subjected to 3 h of equilibration at 20 °C under vacuum prior to initiating the experiments at 50,000 rpm (corresponding to 182,000 × g at the cell center and 201,600 × g at the cell bottom) with continuous data acquisition for 20 h (200 scans) at 20 °C. The AUC data were analyzed with the c(s) model in SEDFIT[66] using a partial specific volume of 0.7335 mL/g.
# 53BP1^TT [4] = target: T3, 53BP1^TT; test: NMR 15N relaxation measurements (R1, R2, NOE); conditions: 1 mM 15N-labeled 53BP1TT, saturating amounts of small molecule
# Protocol: The NMR relaxation measurements were carried out with 1 mM ^15N-labeled 53BP1^TT, 53BP1^TT-PN, and 53BP1^TT in the presence of saturating amounts of UNC3474 and UNC1118 in 25 mM sodium phosphate, pH 7.0, 100 mM NaCl, 1.5 mM NaN3, 0.3 mM DSS, 90% H2O/10% D2O, using standard experiments[58],[59]. The longitudinal and transverse ^15N relaxation rates R1 and R2 were determined using 12 and 14 relaxation delay times of 0.1–2 s and 4–120 ms, respectively. The first data point of each set of measurements was repeated for error assessment. The ^15N-{^1H} nuclear Overhauser ratios were obtained from a reference experiment without proton irradiation and a steady-state experiment with proton irradiation for 3 s.
# T3 sequence (Q12888 1481-1603): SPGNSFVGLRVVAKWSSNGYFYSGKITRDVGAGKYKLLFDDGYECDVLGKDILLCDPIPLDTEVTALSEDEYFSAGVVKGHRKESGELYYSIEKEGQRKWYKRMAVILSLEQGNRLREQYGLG
# T2 sequence (Q12888 1481-1603 E1549P/D1550N): as the sequence (Q12888 1481-1603) above, with E69P, D70N counted along it
# T1 sequence (Q12888 1481-1603): as the sequence (Q12888 1481-1603) above
smiles,measurement,setting,value
CC(C)c1cccc(C(=O)NCCCNC(C)(C)C)c1 [UNC3474],Kd,[1],1 ± 0.3 µM
same,interaction with 53BP1TT-PN (1H-15N HSQC titration),[2],did not interact
same,change in sedimentation coefficient of 53BP1TT,53BP1^TT [3],consistent with the dimerization of 53BP1^TT
same,effect on 15N relaxation rates of 53BP1TT,53BP1^TT [4],increase in R2 relaxation rates
